According to PubChem BioAssay AID1259407 (Chemical Carcinogenesis Research Information System (CCRIS), 2018):
The source made the active and inactive calls. No rule for the calls is given here.

System: CCRIS mutagenicity, Ames/micronucleus/aberration tests
Test: CCRIS mutagenicity studies
[1] = Test System: AMES SALMONELLA TYPHIMURIUM, Strain/Indicator: TA1535, Metabolic Activation: NONE, Method: STANDARD PLATE
[2] = Test System: AMES SALMONELLA TYPHIMURIUM, Strain/Indicator: TA102, Metabolic Activation: NONE, Method: STANDARD PLATE

Measured: mutagenic call

NC(=O)NO
inactive: [1] inactive; negative | Test System: AMES SALMONELLA TYPHIMURIUM, Strain/Indicator: TA1535, Metabolic Activation: RAT, LIVER, S-9, AROCLOR 1254, Method: STANDARD PLATE inactive; negative | Test System: AMES SALMONELLA TYPHIMURIUM, Strain/Indicator: TA1537, Metabolic Activation: NONE, Method: STANDARD PLATE inactive; negative | Test System: E. COLI, Strain/Indicator: WP2 (HCR), Metabolic Activation: NONE, Method: STANDARD PLATE inactive; negative
active: End Point: IN VITRO MICRONUCLEUS, Test System: CHINESE HAMSTER V79 CELLS, Metabolic Activation: NONE active; positive; effect greater at 16 hr exposure | End Point: IN VITRO MICRONUCLEUS, Test System: CHO CELLS, Metabolic Activation: RAT, LIVER, S-9, AROCLOR 1254 active; positive | End Point: In vitro micronucleus, Test System: Human lymphoblastoid TK6 cells, Metabolic Activation: None active; positive (p<0.001) | Test System: AMES SALMONELLA TYPHIMURIUM, Strain/Indicator: TA97, Metabolic Activation: NONE, Method: STANDARD PLATE active; positive | Test System: AMES SALMONELLA TYPHIMURIUM, Strain/Indicator: TA97, Metabolic Activation: RAT, LIVER, S-9, AROCLOR 1254, Method: STANDARD PLATE active; positive | Test System: AMES SALMONELLA TYPHIMURIUM, Strain/Indicator: TA98, Metabolic Activation: RAT, LIVER, S-9, AROCLOR 1254, Method: STANDARD PLATE active; positive | Test System: AMES SALMONELLA TYPHIMURIUM, Strain/Indicator: TA100, Metabolic Activation: RAT, LIVER, S-9, AROCLOR 1254, Method: STANDARD PLATE active; positive | Test System: AMES SALMONELLA TYPHIMURIUM, Strain/Indicator: TA102, Metabolic Activation: RAT, LIVER, S-9, AROCLOR 1254, Method: STANDARD PLATE active; positive | Test System: MOUSE LYMPHOMA, Strain/Indicator: L5178Y (TK+/TK-), Metabolic Activation: NONE, Method: MICROWELL active; positive | Test System: MOUSE LYMPHOMA, Strain/Indicator: L5178Y (TK+/TK-), Metabolic Activation: NONE, Method: SUSPENSION/PLATE active; positive | Test System: MOUSE LYMPHOMA, Strain/Indicator: L5178Y (TK+/TK-), Metabolic Activation: S-9, Method: MICROWELL active; positive | Test System: UDS RODENT HEPATOCYTES, Strain/Indicator: THY INCORP (NON-S-PHASE), Metabolic Activation: NONE, Method: AUTORADIOGRAPHY active; positive

COc1cccc2c1ccc1c(C(=O)O)cc3c(c12)OCO3
inactive: Test System: AMES SALMONELLA TYPHIMURIUM, Strain/Indicator: D3052, Metabolic Activation: NONE, Method: STANDARD PLATE inactive; negative | Test System: AMES SALMONELLA TYPHIMURIUM, Strain/Indicator: D3052, Metabolic Activation: RAT, LIVER, S-9, PHENOBARBITAL, Method: STANDARD PLATE inactive; negative | Test System: AMES SALMONELLA TYPHIMURIUM, Strain/Indicator: G46, Metabolic Activation: NONE, Method: STANDARD PLATE inactive; negative | Test System: AMES SALMONELLA TYPHIMURIUM, Strain/Indicator: G46, Metabolic Activation: RAT, LIVER, S-9, PHENOBARBITAL, Method: STANDARD PLATE inactive; negative | Test System: AMES SALMONELLA TYPHIMURIUM, Strain/Indicator: TA98, Metabolic Activation: RAT, LIVER, S-9, PHENOBARBITAL, Method: STANDARD PLATE inactive; negative | Test System: AMES SALMONELLA TYPHIMURIUM, Strain/Indicator: TA100, Metabolic Activation: RAT, LIVER, S-9, PHENOBARBITAL, Method: STANDARD PLATE inactive; negative | [1] inactive; negative | Test System: AMES SALMONELLA TYPHIMURIUM, Strain/Indicator: TA1535, Metabolic Activation: RAT, LIVER, S-9, PHENOBARBITAL, Method: STANDARD PLATE inactive; negative | Test System: AMES SALMONELLA TYPHIMURIUM, Strain/Indicator: TA1978, Metabolic Activation: NONE, Method: STANDARD PLATE inactive; negative | Test System: AMES SALMONELLA TYPHIMURIUM, Strain/Indicator: TA1978, Metabolic Activation: RAT, LIVER, S-9, PHENOBARBITAL, Method: STANDARD PLATE inactive; negative | Test System: AMES SALMONELLA TYPHIMURIUM, Strain/Indicator: YG1021, Metabolic Activation: NONE, Method: STANDARD PLATE inactive; negative | Test System: AMES SALMONELLA TYPHIMURIUM, Strain/Indicator: YG1026, Metabolic Activation: NONE, Method: STANDARD PLATE inactive; negative
active: Test System: AMES SALMONELLA TYPHIMURIUM, Strain/Indicator: TA98(NR), Metabolic Activation: NONE, Method: STANDARD PLATE active; positive | Test System: AMES SALMONELLA TYPHIMURIUM, Strain/Indicator: TA100(NR), Metabolic Activation: NONE, Method: STANDARD PLATE active; positive | [2] active; positive | Test System: AMES SALMONELLA TYPHIMURIUM, Strain/Indicator: TM677/8-AZAGUANINE, Metabolic Activation: NONE, Method: SUSPENSION/PLATE active; positive | Test System: CHINESE HAMSTER OVARY, Strain/Indicator: CHO-K1-BH4 (HGPRT), Metabolic Activation: NONE active; positive

O=c1ccc2ccccc2[nH]1
inactive: Test System: AMES SALMONELLA TYPHIMURIUM, Strain/Indicator: TA100, Metabolic Activation: NONE, Method: STANDARD PLATE inactive; negative | Test System: AMES SALMONELLA TYPHIMURIUM, Strain/Indicator: TA100, Metabolic Activation: RAT, LIVER, S-9, AROCLOR 1254 (10% OR 20%), Method: STANDARD PLATE inactive; negative

CC(C)CNC(=O)C=Cc1ccc([N+](=O)[O-])o1
active: Test System: AMES SALMONELLA TYPHIMURIUM, Strain/Indicator: TA98, Metabolic Activation: NONE, Method: PREINCUBATION active; positive

Cc1cc(-c2cc3c(cc2F)n2c(=O)n(O)c(=O)cc2n3C2CC2)cc(C)n1
active: [2] active; positive
